Data on seven compounds can be found in patent publication US12435031B2, “Compound with broad-spectrum antibacterial activity and its antibacterial composition” (CHINA AGRICULTURAL UNIVERSITY, priority 2023, dated 2025).

One assay relates to Enterococcus. Description: microbe, parasite or virus in culture. In kind it is cell-based. As to conditions: read-out: MICs.
For assay [1], the system named is Trichophyton ATCC MTA-4439. The assay can be described thus: MIC against pathogenic fungi, Trichophyton. In kind it is cell-based. As to conditions: Trichophyton ATCC MTA-4439.
Assay [2] deals with Aspergillus niger ATCC 96918. The assay can be described thus: MIC against pathogenic fungi, Aspergillus niger. As to conditions: Aspergillus niger ATCC 96918. Format: cell-based.
The test system of assay [3] is Aspergillus flavus ATCC 11492. Description: MIC against pathogenic fungi, Aspergillus flavus. In kind it is cell-based.
Assay [4] can be described thus: MIC against pathogenic fungi, Candida ATCC 6258. In kind it is cell-based. As to conditions: Candida albicans ATCC 6258 (Candida krusei ATCC 6258).
Assay [5] concerns Clostridium perfringens. Description: microbe, parasite or virus in culture. Format: cell-based.
Another assay has as its system Mycobacterium smegmatis. The assay can be described thus: microbe, parasite or virus in culture. In kind it is cell-based. As to conditions: Mycolicibacterium smegmatis, read-out: MICs.
The next assay relates to Staphylococcus. The assay can be described thus: microbe, parasite or virus in culture. Format: cell-based. As to conditions: Staphylococcus, read-out: MICs.
A further assay deals with Streptococcus. Description: microbe, parasite or virus in culture. As to conditions: read-out: MICs. Format: cell-based.
The test system of another assay is MRSA T144. As to conditions: Galleria mellonella infected with MRSA T144, 2 mg/kg b.w. 1 hour after infection, within 5 days.
The test system of assay [6] is Clostridium perfringens. The assay can be described thus: microbe, parasite or virus in culture. In kind it is cell-based. Conditions: read-out: MICs.
For a further assay, the system named is Bacillus. Description: microbe, parasite or virus in culture. In kind it is cell-based. As to conditions: read-out: MICs.

≈ marks a conversion by molar mass, not a printed value. Read-outs that look alike come from different tables or passages of the source.

In the case of `CC(=O)NC[C@H]1CN(c2ccc(N3CCOCC3)c(F)c2)C(=O)O1` [linezolid], in the assay with Enterococcus, the MIC was determined as 1 µg/mL (≈ 2.96 µM).

For the compound `C[C@@H]1[C@H](O)[C@@H](C)/C=C/C=C/C=C/C=C/C=C/C=C/C=C/[C@H](O[C@@H]2O[C@H](C)[C@@H](O)[C@H](N)[C@@H]2O)C[C@@H]2O[C@](O)(C[C@@H](O)C[C@@H](O)[C@H](O)CC[C@@H](O)C[C@@H](O)CC(=O)O[C@H]1C)C[C@H](O)[C@H]2C(=O)O` [Amphotericin B], the MICs in assay [1] came to 0.25 µg/mL; in assay [2] it was 0.125 µg/mL; in assay [3], 0.25 µg/mL; in assay [4], 0.5 µg/mL.

As to Penicillin, the “MIC value against Clostridium perfringens” value (shortened to “MIC value”) in the assay with Clostridium perfringens [5] (strain A3-1 (A-type)) came to 0.25 µg/mL; in the assay on Clostridium perfringens [5] (strain A3-2 (A-type)), 0.5 µg/mL; with Clostridium perfringens [5] (strain A57-1 (A-type)), 0.25 µg/mL; against Clostridium perfringens [5] (strain B4 (B-type)), 0.5 µg/mL; in the assay with Clostridium perfringens [5] (strain B5 (B-type)), 0.5 µg/mL; against Clostridium perfringens [5] (strain C3 (C-type)) it was 2 µg/mL. Further, the “MIC value” value against Clostridium perfringens [5] (strain C8 (C-type)) amounted to 0.25 µg/mL; with Clostridium perfringens [5] (strain C59-1 (C-type)), 0.125 µg/mL; with Clostridium perfringens [5] (strain D14B (D-type)), 0.5 µg/mL; against Clostridium perfringens [5] (strain F5-2 (F-type)), 0.125 µg/mL; against Clostridium perfringens [5] (strain F6-1 (F-type)), 0.25 µg/mL; against Clostridium perfringens [5] (strain F6-2 (F-type)), 0.125 µg/mL. For the same compound, the “MIC value” value in the assay on Clostridium perfringens [5] (strain F6-2-1 (F-type)) worked out at 0.25 µg/mL; with Clostridium perfringens [5] (strain F6-2-2 (F-type)), 0.25 µg/mL; in the assay on Clostridium perfringens [5] (strain F7-1 (F-type)) it was 0.5 µg/mL; against Clostridium perfringens [5] (strain F8-1 (F-type)) it was 0.25 µg/mL; against Clostridium perfringens [5] (strain H12-1 (H-type)) it was 0.25 µg/mL; with Clostridium perfringens [5] (strain H12-2 (H-type)), 0.125 µg/mL. Further, the “MIC value” value against Clostridium perfringens [5] (strain H13-1 (H-type)) stood at 0.0625 µg/mL; against Clostridium perfringens [5] (strain H14-1 (H-type)), 0.25 µg/mL; in the assay with Clostridium perfringens [5] (strain H14-2 (H-type)) it was 1 µg/mL; in the assay with Clostridium perfringens [5] (strain H14-4 (H-type)) it was 0.125 µg/mL; in the assay with Clostridium perfringens [5] (strain H15-1 (H-type)), 0.25 µg/mL; in the assay on Clostridium perfringens [5] (strain H15-2 (H-type)) it was 0.25 µg/mL. Moreover, the entries for the “MIC value” value in the assay with Clostridium perfringens [5] (strain H15-3 (H-type)) and against Clostridium perfringens [5] (strain H16 (H-type)) were 0.25 µg/mL and 0.125 µg/mL, respectively.

Turning to `CN[C@H](CC(C)C)C(=O)N[C@H]1C(=O)N[C@@H](CC(N)=O)C(=O)N[C@H]2C(=O)N[C@H]3C(=O)N[C@H](C(=O)N[C@H](C(=O)O)c4cc(O)cc(O)c4-c4cc3ccc4O)[C@H](O)c3ccc(c(Cl)c3)Oc3cc2cc(c3O[C@@H]2O[C@H](CO)[C@@H](O)[C@H](O)[C@H]2O[C@H]2C[C@](C)(N)[C@H](O)[C@H](C)O2)Oc2ccc(cc2Cl)[C@H]1O` [VAN, Vancomycin], the MIC was 16 µg/mL (≈ 11 µM) in the assay with Mycobacterium smegmatis; 1 µg/mL (≈ 0.69 µM) with Staphylococcus; at most 0.25 µg/mL in the assay on Clostridium perfringens [5] (Clostridium perfringens, read-out: MIC value against Clostridium perfringens); 0.25 µg/mL (≈ 0.173 µM) with Streptococcus; 0.5 µg/mL (≈ 0.345 µM) with Clostridium perfringens [6]; 0.5 µg/mL (≈ 0.345 µM) with Bacillus. The compound further came in with a protective rate with MRSA T144 of 40%.

`CC[C@H]1OC(=O)C[C@@H](O)[C@H](C)[C@@H](O[C@@H]2O[C@H](C)[C@@H](O)[C@H](N(C)C)[C@H]2O)[C@@H](CCN2C[C@H](C)C[C@H](C)C2)C[C@@H](C)C(=O)/C=C/C(C)=C/[C@@H]1CO[C@@H]1O[C@H](C)[C@@H](O)[C@@H](OC)[C@H]1OC` [TMS, Tilmicosin] displayed an MIC50 against Clostridium perfringens [5] (Clostridium perfringens) of 128 µg/mL (≈ 147 µM). Further, in the assay with Clostridium perfringens [5] (Clostridium perfringens), the MIC90 is over 128 µg/mL. Further, the MIC was 4 µg/mL (≈ 4.6 µM) in the assay on Clostridium perfringens [5] (Clostridium perfringens, read-out: MIC value against Clostridium perfringens, strain A3-1 (A-type)); 2 µg/mL (≈ 2.3 µM) in the assay with Clostridium perfringens [5] (Clostridium perfringens, read-out: MIC value against Clostridium perfringens, strain A3-2 (A-type)); 4 µg/mL (≈ 4.6 µM) in the assay with Clostridium perfringens [5] (Clostridium perfringens, read-out: MIC value against Clostridium perfringens, strain A57-1 (A-type)); over 128 µg/mL with Clostridium perfringens [5] (Clostridium perfringens, read-out: MIC value against Clostridium perfringens, strain B4 (B-type)); over 128 µg/mL in the assay with Clostridium perfringens [5] (Clostridium perfringens, read-out: MIC value against Clostridium perfringens, strain B5 (B-type)); over 128 µg/mL in the assay on Clostridium perfringens [5] (Clostridium perfringens, read-out: MIC value against Clostridium perfringens, strain C3 (C-type)). Also, the MIC in the assay on Clostridium perfringens [5] (Clostridium perfringens, read-out: MIC value against Clostridium perfringens, strain C8 (C-type)) was over 128 µg/mL; in the assay on Clostridium perfringens [5] (Clostridium perfringens, read-out: MIC value against Clostridium perfringens, strain C59-1 (C-type)) it was 2 µg/mL (≈ 2.3 µM); in the assay with Clostridium perfringens [5] (Clostridium perfringens, read-out: MIC value against Clostridium perfringens, strain D14B (D-type)), 128 µg/mL (≈ 147 µM); in the assay with Clostridium perfringens [5] (Clostridium perfringens, read-out: MIC value against Clostridium perfringens, strain F5-2 (F-type)) it was 128 µg/mL (≈ 147 µM); in the assay on Clostridium perfringens [5] (Clostridium perfringens, read-out: MIC value against Clostridium perfringens, strain F6-1 (F-type)), 128 µg/mL (≈ 147 µM); in the assay with Clostridium perfringens [5] (Clostridium perfringens, read-out: MIC value against Clostridium perfringens, strain F6-2 (F-type)), 128 µg/mL (≈ 147 µM). Moreover, the MIC with Clostridium perfringens [5] (Clostridium perfringens, read-out: MIC value against Clostridium perfringens, strain F6-2-1 (F-type)) is over 128 µg/mL; in the assay with Clostridium perfringens [5] (Clostridium perfringens, read-out: MIC value against Clostridium perfringens, strain F6-2-2 (F-type)) it was 128 µg/mL (≈ 147 µM); in the assay on Clostridium perfringens [5] (Clostridium perfringens, read-out: MIC value against Clostridium perfringens, strain F7-1 (F-type)) it was 64 µg/mL (≈ 73.6 µM); in the assay with Clostridium perfringens [5] (Clostridium perfringens, read-out: MIC value against Clostridium perfringens, strain F8-1 (F-type)), 128 µg/mL (≈ 147 µM); in the assay on Clostridium perfringens [5] (Clostridium perfringens, read-out: MIC value against Clostridium perfringens, strain H12-1 (H-type)), 4 µg/mL (≈ 4.6 µM); in the assay with Clostridium perfringens [5] (Clostridium perfringens, read-out: MIC value against Clostridium perfringens, strain H12-2 (H-type)) it was 4 µg/mL (≈ 4.6 µM). Besides, the MIC was determined as 4 µg/mL (≈ 4.6 µM) in the assay on Clostridium perfringens [5] (Clostridium perfringens, read-out: MIC value against Clostridium perfringens, strain H13-1 (H-type)); 128 µg/mL (≈ 147 µM) with Clostridium perfringens [5] (Clostridium perfringens, read-out: MIC value against Clostridium perfringens, strain H14-1 (H-type)); 128 µg/mL (≈ 147 µM) in the assay on Clostridium perfringens [5] (Clostridium perfringens, read-out: MIC value against Clostridium perfringens, strain H14-2 (H-type)); 128 µg/mL (≈ 147 µM) in the assay with Clostridium perfringens [5] (Clostridium perfringens, read-out: MIC value against Clostridium perfringens, strain H14-4 (H-type)); 4 µg/mL (≈ 4.6 µM) in the assay on Clostridium perfringens [5] (Clostridium perfringens, read-out: MIC value against Clostridium perfringens, strain H15-1 (H-type)); 128 µg/mL (≈ 147 µM) in the assay with Clostridium perfringens [5] (Clostridium perfringens, read-out: MIC value against Clostridium perfringens, strain H15-2 (H-type)). For the same compound, the MIC in the assay on Clostridium perfringens [5] (Clostridium perfringens, read-out: MIC value against Clostridium perfringens, strain H15-3 (H-type)) is 4 µg/mL (≈ 4.6 µM); in the assay with Clostridium perfringens [5] (Clostridium perfringens, read-out: MIC value against Clostridium perfringens, strain H16 (H-type)) it was 128 µg/mL (≈ 147 µM).

Compound `O=C(Nc1ccc(Cl)c(C(F)(F)F)c1Cl)c1cc(Cl)ccc1O` [BAB160] came in with an MIC50 in the assay with Clostridium perfringens [5] (Clostridium perfringens) of 8 µg/mL (≈ 20.8 µM).

For the compound `O=C(Nc1cc(Cl)cc(Br)c1)c1cc(Cl)ccc1O` [BAB142], the MIC50 in the assay on Clostridium perfringens [5] (Clostridium perfringens) was 16 µg/mL (≈ 44.3 µM).
